These results are taken from patent US8153808B2, “Dihydropyridone amides as P2X7 modulators” (Roche Palo Alto LLC, priority 2008, dated 2012).

This test has as its target T1, P2X7 (UniProt Q99572).
T1 sequence (Q99572 1-595): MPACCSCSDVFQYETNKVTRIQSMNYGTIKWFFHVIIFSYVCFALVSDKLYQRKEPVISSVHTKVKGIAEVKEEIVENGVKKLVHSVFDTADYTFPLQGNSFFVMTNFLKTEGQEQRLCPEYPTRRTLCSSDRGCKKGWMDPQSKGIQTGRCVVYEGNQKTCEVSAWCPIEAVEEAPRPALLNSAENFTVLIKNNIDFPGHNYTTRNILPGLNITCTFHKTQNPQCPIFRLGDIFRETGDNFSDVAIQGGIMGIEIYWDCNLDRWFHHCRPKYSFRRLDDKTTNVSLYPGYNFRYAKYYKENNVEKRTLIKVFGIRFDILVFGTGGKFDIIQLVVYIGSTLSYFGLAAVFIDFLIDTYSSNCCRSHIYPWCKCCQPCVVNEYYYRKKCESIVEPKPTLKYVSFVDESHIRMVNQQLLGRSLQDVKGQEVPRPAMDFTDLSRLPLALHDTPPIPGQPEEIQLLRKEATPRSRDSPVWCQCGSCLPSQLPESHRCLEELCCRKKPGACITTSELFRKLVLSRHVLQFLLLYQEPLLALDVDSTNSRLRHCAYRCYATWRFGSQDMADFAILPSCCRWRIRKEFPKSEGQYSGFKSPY
Briefly: pIC50 values for P2X7 (Table 1). Format: cell-based. The protocol:
Intracellular Calcium Flux (FLIPR) Assay
Stock solutions of compounds were prepared from powders as a 10 mM DMSO stock solution. These solutions were stored at RT during the two week period of these experiments to prevent freeze-thaw of the DMSO stocks. The DMSO stocks were added to the appropriate assay buffer at a concentration of 10 μM, and then diluted serially to the final concentrations that were tested. […] The aqueous solutions of compounds as well as ATP (Sigma A7699) and BzATP (Sigma B6396) were prepared fresh for each day of experiment.
1321N1 cells stably expressing the full length human P2X7 gene (1321N1-hP2X7) and HEK293 cells stably expressing the full length rat P2X7 gene (HEK293-rP2X7) were obtained from the Roche Cell Culture Facility. 1321N1-hP2X7 cells were grown in Dulbecco's Modified Eagle's Medium (DMEM) high glucose supplemented with 10% FBS and 250 μg/mL G418. HEK293-rP2X7 cells were grown in DMEM/F-12 supplemented with 10% FBS, 1 mM CaCl2, 2 mM MgCl2, 2 mM L-Glutamine and 500 μg/ml G418. Cells were split such that they never became >70% confluent.
On the day prior to the experiment, 1321N1-hP2X7 or HEK293-rP2X7 cells were released into suspension with calcium-free PBS+Versene and washed by centrifugation with calcium-free PBS to remove the Versene. Cells were resuspended in growth medium at a density of 2.5×10^5 cells/mL and seeded into black walled, clear bottom 96 well plates (50,000 cells/well) approximately 18 hr prior to intracellular calcium flux experiments.
On the day of the experiment, plates were washed with FLIPR buffer (calcium- and magnesium-free Hank's Balanced Salt Solution (HBSS) supplemented with 10 mM Hepes, 2.5 mM probenecid and 2 mM calcium chloride) using a BIO-TEK 96 channel plate washer and incubated with […] fluo-3 dye at 37° C. for one hr. The dye was then removed by plate washing and the cells were allowed to equilibrate for 20 min at room temperature with antagonist or vehicle (FLIPR buffer). Agonist (100 μM BzATP final concentration for hP2X7; 5 μM BzATP final concentration or rP2X7) was added online with the FLIPR and fluorescence measurements made at 1 sec intervals for 60 sec followed by 3 sec intervals for a further 4 min (5 min total). A final addition of 5 μM ionomycin was made and the maximal BzATP-evoked fluorescence normalized to the maximal ionomycin-evoked fluorescence.

Each structure is given as a SMILES string.

For the compound `COc1ccc(CC(=O)N2C=CC(=O)CC2c2ccccc2)c(Br)c1` (stereo not drawn) [Compound 8, 1-[2-(2-Bromo-4-methoxy-phenyl)-acetyl]-2-phenyl-2,3-dihydro-1H-pyridin-4-one], the “pIC50 P2X7” value came to 5.685.
Take `COc1cc(Br)c(CC(=O)N2C=CC(=O)C[C@H]2c2ccc(F)cc2)cc1OC` [Compound 19, (S)-1-[2-(2-Bromo-4,5-dimethoxy-phenyl)-acetyl]-2-(4-fluoro-phenyl)-2,3-dihydro-1H-pyridin-4-one]: the “pIC50 P2X7” value was 7.6125.
The figure for `O=C1C=CN(C(=O)Cc2cc(OCCO)c(F)cc2Br)[C@H](c2ccc(F)cc2)C1` [Compound 46, (S)-1-{2-[2-Bromo-4-fluoro-5-(2-hydroxy-ethoxy)-phenyl]-acetyl}-2-(4-fluoro-phenyl)-2,3-dihydro-1H-pyridin-4-one] is 7.31.
Regarding `COc1cc(Br)c(CC(=O)N2C=CC(=O)CC2c2ccc(C)cc2)cc1OC` (stereo not drawn) [Compound 38, 1-[2-(2-Bromo-4,5-dimethoxy-phenyl)-acetyl]-2-p-tolyl-2,3-dihydro-1H-pyridin-4-one], the “pIC50 P2X7” value worked out at 5.325.
The figure for `COc1cc(Br)c(CC(=O)N2C=CC(=O)CC2CC2CCCCC2)cc1OC` (stereo not drawn) [Compound 34, 1-[2-(2-Bromo-4,5-dimethoxy-phenyl)-acetyl]-2-cyclohexylmethyl-2,3-dihydro-1H-pyridin-4-one] is 5.94; for `Cc1cc(Br)c(CC(=O)N2C=CC(=O)CC2c2ccc(F)cc2)cc1O` (stereo not drawn) [Compound 33, 1-[2-(2-Bromo-5-hydroxy-4-methyl-phenyl)-acetyl]-2-(4-fluoro-phenyl)-2,3-dihydro-1H-pyridin-4-one] it is 6.18; for `COc1cc(Br)c(CC(=O)N2C=CC(=O)CC2C2CCCC2)cc1OC` (stereo not drawn) [Compound 27, 1-[2-(2-Bromo-4,5-dimethoxy-phenyl)-acetyl]-2-cyclopentyl-2,3-dihydro-1H-pyridin-4-one] it is 6.35.
As to `COc1cc(Br)c(CC(=O)N2C=CC(=O)CC2C(C)C)cc1OC` (stereo not drawn) [Compound 9, 1-[2-(2-Bromo-4,5-dimethoxy-phenyl)-acetyl]-2-isopropyl-2,3-dihydro-1H-pyridin-4-one], the “pIC50 P2X7” value is reported as 5.45.
The figure for `COc1cc(I)c(CC(=O)N2C=CC(=O)C[C@H]2c2ccccc2)cc1OC` [Compound 4, (S)-1-[2-(2-Iodo-4,5-dimethoxy-phenyl)-acetyl]-2-phenyl-2,3-dihydro-1H-pyridin-4-one] is 7.418.
Next, `COc1cc(I)c(CC(=O)N2C=CC(=O)C[C@@H]2c2ccccc2)cc1OC` [Compound 5, (R)-1-[2-(2-Iodo-4,5-dimethoxy-phenyl)-acetyl]-2-phenyl-2,3-dihydro-1H-pyridin-4-one]: 5.425; `COc1cc(Cl)c(CC(=O)N2C=CC(=O)C[C@H]2c2ccc(F)cc2)cc1OC` [Compound 51, (S)-1-[2-(2-Chloro-4,5-dimethoxy-phenyl)-acetyl]-2-(4-fluoro-phenyl)-2,3-dihydro-1H-pyridin-4-one]: 7.77.
Next, `COc1cc(I)c(CC(=O)N2C=CC(=O)CC2c2ccccc2C)cc1OC` (stereo not drawn) [Compound 2, 1-[2-(2-Iodo-4,5-dimethoxy-phenyl)-acetyl]-2-o-tolyl-2,3-dihydro-1H-pyridin-4-one]: 5.963; `Cc1cc(F)c(OCCO)cc1CC(=O)N1C=CC(=O)C[C@H]1c1ccc(F)cc1` [Compound 49, (S)-1-{2-[4-Fluoro-5-(2-hydroxy-ethoxy)-2-methyl-phenyl]-acetyl}-2-(4-fluoro-phenyl)-2,3-dihydro-1H-pyridin-4-one]: 7.12; `COc1cccc(C2CC(=O)C=CN2C(=O)Cc2cc(OC)c(OC)cc2Br)c1` (stereo not drawn) [Compound 28, 1-[2-(2-Bromo-4,5-dimethoxy-phenyl)-acetyl]-2-(3-methoxy-phenyl)-2,3-dihydro-1H-pyridin-4-one]: 5.415.
With `COc1cc(CC(=O)N2C=CC(=O)C[C@H]2c2ccc(F)cc2)c(Br)cc1OCC1CC1` [Compound 20, (S)-1-[2-(2-Bromo-4-cyclopropylmethoxy-5-methoxy-phenyl)-acetyl]-2-(4-fluoro-phenyl)-2,3-dihydro-1H-pyridin-4-one], the “pIC50 P2X7” value is 6.08.
The figure for `COc1cc(I)c(CC(=O)N2C=CC(=O)CC2c2ccccc2)cc1OC` (stereo not drawn) [Compound 1, 1-[2-(2-Iodo-4,5-dimethoxy-phenyl)-acetyl]-2-phenyl-2,3-dihydro-1H-pyridin-4-one] is 6.984.
In the case of `COc1ccc(Br)c(CC(=O)N2C=CC(=O)CC2c2ccccc2)c1` (stereo not drawn) [Compound 7, 1-[2-(2-Bromo-5-methoxy-phenyl)-acetyl]-2-phenyl-2,3-dihydro-1H-pyridin-4-one], the “pIC50 P2X7” value came to 6.765.
Consider `CCOc1cc(Br)c(CC(=O)N2C=CC(=O)C[C@H]2c2ccc(F)cc2)cc1OC` [Compound 17, (S)-1-[2-(2-Bromo-4-ethoxy-5-methoxy-phenyl)-acetyl]-2-(4-fluoro-phenyl)-2,3-dihydro-1H-pyridin-4-one], for which the “pIC50 P2X7” value is 6.535.
The figure for `COc1cc(Br)c(CC(=O)N2C=CC(=O)CC2C2CCCCC2)cc1OC` (stereo not drawn) [Compound 10, 1-[2-(2-Bromo-4,5-dimethoxy-phenyl)-acetyl]-2-cyclohexyl-2,3-dihydro-1H-pyridin-4-one] is 7.193.
The figure for `COc1ccc(CC(=O)N2C=CC(=O)C[C@H]2c2ccc(F)cc2)cc1OC` [Compound 44, (S)-1-[2-(3,4-Dimethoxy-phenyl)-acetyl]-2-(4-fluoro-phenyl)-2,3-dihydro-1H-pyridin-4-one] is 6.003; for `COc1cc(CC(=O)N2C=CC(=O)CC2c2ccccc2)c(C(F)(F)F)cc1OC` (stereo not drawn) [Compound 15, 1-[2-(4,5-Dimethoxy-2-trifluoromethyl-phenyl)-acetyl]-2-phenyl-2,3-dihydro-1H-pyridin-4-one] it is 5.395; for `COc1cc(Br)c(CC(=O)N2C=CC(=O)C[C@H]2c2ccccc2)cc1OC` [Compound 13, (S)-1-[2-(2-Bromo-4,5-dimethoxy-phenyl)-acetyl]-2-phenyl-2,3-dihydro-1H-pyridin-4-one] it is 7.22.
Next, `COc1cc(Br)c(CC(=O)N2C=CC(=O)CC2c2cccc(Cl)c2)cc1OC` (stereo not drawn) [Compound 25, 1-[2-(2-Bromo-4,5-dimethoxy-phenyl)-acetyl]-2-(3-chloro-phenyl)-2,3-dihydro-1H-pyridin-4-one]: 6.28; `COc1cc(F)c(CC(=O)N2C=CC(=O)C[C@H]2c2cccc(F)c2)cc1OC` [Compound 48, (S)-1-[2-(2-Fluoro-4,5-dimethoxy-phenyl)-acetyl]-2-(3-fluoro-phenyl)-2,3-dihydro-1H-pyridin-4-one]: 6.55.
Consider `O=C1C=CN(C(=O)Cc2cc(OC(F)F)c(OC(F)F)cc2Br)[C@H](c2ccc(F)cc2)C1` [Compound 26, (S)-1-[2-(2-Bromo-4,5-bis-difluoromethoxy-phenyl)-acetyl]-2-(4-fluoro-phenyl)-2,3-dihydro-1H-pyridin-4-one], for which the “pIC50 P2X7” value was 5.895.
With `COc1cc(Br)c(CC(=O)N2C=CC(=O)CC2c2cccc(F)c2)cc1OC` (stereo not drawn) [Compound 35, 1-[2-(2-Bromo-4,5-dimethoxy-phenyl)-acetyl]-2-(3-fluoro-phenyl)-2,3-dihydro-1H-pyridin-4-one], the “pIC50 P2X7” value came out at 6.815.
Turning to `COc1cc(CC(=O)N2C=CC(=O)C[C@H]2c2ccc(F)cc2)c(Br)cc1C` [Compound 29, (S)-1-[2-(2-Bromo-5-methoxy-4-methyl-phenyl)-acetyl]-2-(4-fluoro-phenyl)-2,3-dihydro-1H-pyridin-4-one], the “pIC50 P2X7” value amounted to 6.625.
